Experimental findings from patent publication US20040259948A1, “Reciprocal regulation of inflammation and lipid metabolism by liver X receptors” (priority 2003, published 2004) are described below.

In experiment [1] the test system is Thioglycolate-elicited murine peritoneal macrophages. The experiment in a line: LPS-stimulated macrophages: NO production, iNOS and ABCA1 mRNA. Format: cell-based. The protocol: To investigate the role of LXRs in host defense, the influence of LXR agonists on macrophage responses to bacterial pathogens was tested. Thioglycolate-elicited peritoneal macrophages were infected in vitro with Escherichia coli. After 18 hours, expression of inducible nitric oxide synthase (iNOS) mRNA and nitric oxide (NO) production were assessed. […] This repression occurs over the same concentration range needed to induce the established LXR target gene ATP-binding cassette transporter A1 (ABCA1). A, LXR agonist inhibits nitrite production in response to bacterial infection. […] Cells were then infected with E. coli (A, B) or treated with 100 ng/ml LPS(C, D, E) as indicated. After 18 h, NO production was determined using a colorimetric assay (A, D), or mRNA levels were determined using real-time quantitative PCR assays (B, C, E). […] The inhibitory effect of LXR agonists on iNOS expression was dose-dependent and occurred over the same range of concentration as that required to induce ATP-binding cassette transporter A1 (ABCA1) (FIGS. 1D and E).
The anti-inflammatory activity of LXR ligands can be separated from the induction of lipid metabolism genes such as ABCA1. Murine peritoneal macrophages were treated with LPS to induce iNOS gene expression (FIG. 8A) and were assayed for ABCA1 mRNA by real time qPCR (FIG. 8B). NOx production was measured by colorimetric assay. […] The identification of LXR agonists with only anti-inflammatory activity should greatly increase the usefulness of such compounds as therapeutic agents, because they lack the unwanted side effects on lipid metabolism such as elevation of triglyceride levels.
Cell culture and transfections. Thioglycolate-elicited peritoneal macrophages were cultured in RPMI containing 10% fetal bovine serum (FBS). RAW 264.7 cells were cultured in DMEM containing 10% FBS. For ligand treatments, cells were in cultured medium supplemented with 5% lipoprotein-deficient serum (LPDS) and ligands for 18 h before stimulation. Bacterial infection in vitro was performed as described (Chen, L. M. et al. 1996 Mol Microbiol 21:1101-1115). Transient transfections of RAW 264.7 cells were performed in triplicate in 48-well plates using Superfect reagent (Life Technologies). After transfection, cells were incubated in medium containing 10% LPDS and the indicated ligands for 18 h before stimulation with LPS for an additional 18 h. Luciferase activity was normalized to β-galactosidase activity. NO production was determined spectrophotometrically (Castrillo, A. et al. 2000 Mol Cell Biol 20:1692-1698).
RNA and protein analysis. Total RNA was extracted using Trizol reagent (Life Technologies, Inc.). Northern blot analysis was carried out as described using radiolabeled cDNA probes (Tontonoz, P. et al. 1998 Cell 93:241-252). Real-time quantitative PCR (TaqMan) analysis was performed using an Applied Biosystems 7700 sequence detector. Two-step real-time PCR was performed as described (Joseph, S. B. et al. 2002 J Biol Chem 277:11019-11025). The primers and probes used are as follows: […]

For experiment [2] the test system is unchanged. Kind of experiment: IL-1β- or TNFα-induced inflammatory gene expression in macrophages. Particulars: pretreated 18 h; IL-1β or TNFα (50 ng/ml); real-time quantitative PCR. It is filed as cell-based. The protocol: Next, the influence of LXR agonists on inflammatory gene expression induced by IL-1β and TNFα, which have been implicated in the pathogenesis of atherosclerosis, was tested. […] Gene expression was detected by real-time quantitative PCR assays. […] Total RNA was isolated from individual aortas and gene expression was measured by real-time quantitative PCR. P<0.05 for MMP-9 (*) and P<0.01 (**) for ABCA1. […] Thus, LXR agonist reduces expression of an established inflammatory mediator in the vessel wall. Cell culture and transfections. Thioglycolate-elicited peritoneal macrophages were cultured in RPMI containing 10% fetal bovine serum (FBS). RAW 264.7 cells were cultured in DMEM containing 10% FBS. For ligand treatments, cells were in cultured medium supplemented with 5% lipoprotein-deficient serum (LPDS) and ligands for 18 h before stimulation. Bacterial infection in vitro was performed as described (Chen, L. M. et al. 1996 Mol Microbiol 21:1101-1115). Transient transfections of RAW 264.7 cells were performed in triplicate in 48-well plates using Superfect reagent (Life Technologies). After transfection, cells were incubated in medium containing 10% LPDS and the indicated ligands for 18 h before stimulation with LPS for an additional 18 h. Luciferase activity was normalized to β-galactosidase activity. NO production was determined spectrophotometrically (Castrillo, A. et al. 2000 Mol Cell Biol 20:1692-1698). RNA and protein analysis. Total RNA was extracted using Trizol reagent (Life Technologies, Inc.). Northern blot analysis was carried out as described using radiolabeled cDNA probes (Tontonoz, P. et al. 1998 Cell 93:241-252). Real-time quantitative PCR (TaqMan) analysis was performed using an Applied Biosystems 7700 sequence detector. Two-step real-time PCR was performed as described (Joseph, S. B. et al. 2002 J Biol Chem 277:11019-11025). The primers and probes used are as follows: […]

Where [3] appears, read: 100 ng/ml LPS, 18 h, real-time quantitative PCR, FIG. 1E.

Each structure is given as a SMILES string.

Regarding `O=C(O)Cc1cccc(OCCCN(Cc2cccc(C(F)(F)F)c2Cl)CC(c2ccccc2)c2ccccc2)c1` [GW3965], in experiment [1] (100 ng/ml LPS, 18 h, colorimetric assay, FIG. 1D), the “nitrite production, dose response” value was “Dose-dependent inhibition”. In experiment [1] (setting [3]), the “ABCA1 mRNA expression, dose response” value was “Reciprocal dose-dependent regulation” and the “iNOS mRNA expression, dose response” value is “Reciprocal dose-dependent regulation”. For the same molecule, the “inhibition of inflammatory genes (NOx production), T1317 compared with GW3965” value in experiment [1] (LPS, increasing doses, colorimetric assay, FIG. 8A) was “more effective inhibitor”. For the same molecule, in experiment [2], the “induction of IL-6 expression” value is “inhibited” and the “induction of iNOS expression” value is recorded as “inhibited”.
